The text below walks through data of US20250276996A1, “CATIONICALLY-ENFRAMED HIGH DENSITY AROMATIC PEPTIDES” (Research Foundation of the City University of New York, priority 2022, published 2025).

“Also recorded” adds a separate entry of the source. Non-standard residues stand in square brackets, D forms with d. Residues, ends and D or L forms follow the SMILES beside them. *: point of attachment. Biotin = O=C1N[C@H]2[C@H](CS[C@H]2CCCCC(=O)*)N1

Series [1] can be described thus: NAO fluorescence with POPC liposomes. The series is classed as binding. How it is done: (§1) The resulting multilamellar vesicles were vortexed lightly and sized into small unilamellar vesicles by heated bath sonication for 25 min. All liposomes were cooled to ambient temperature before use.
Interaction of biotin-HDAP2 Peptide with Phospholipids: The ability of biotin-HDAP2 to displace nonyl acridine orange (NAO), a fluoroprobe known to selectively bind CL was determined. Interaction of biotin-HDAP2 with phospholipids was examined by measuring changes in the fluorescence spectra of 3 μM NAO (Molecular Devices, Sunnyvale, CA)) with excitation at 480 nm. CL and POPC in liposomes were use at 30 μM. Dose response curves were done with 30 μM CL, biotin-HDAP2 (0, 2.5, 5, 10, 20, and 30 μM), and 3 μM of NAO (ex/em at 480 nm/520 nm). All experiments were done in 10 mM Hepes (pH 7.4) to optimize electrostatic interactions of peptides with phospholipids.

A short description of series [2]: Nile Red fluorescence shift in POPC-CL liposomes. The following applies: 638 nm before the shift. In kind it is binding, bovine. How it is done: as §1
Interactions between biotin-HDAP2 and Phospholipid liposomes measured by Nile Red fluorescence: The hydrophobicity of biotin-HDAP2 and phospholipids was examined by changes in the spectral fluorescence shift and intensity of Nile Red (NR, 10 μM). NR increases its intensity of fluorescence when combined with the hydrophobic environments of acyl chains of phospholipids, and produces a blue shift when hydrophobicity is increased. All experiments were done with 30 μM of either CL or POPC and 30 μM of biotin-HDAP2 in 10 mM Hepes (pH 7.4) to optimize the electrostatic interactions of peptides with phospholipids. The solvents used to dissolve the various phospholipids (chloroform, methanol, and ethanol) had negligible effects on the fluorescence spectra.

The subject of the next series is MDBK cells. The series is described as follows: Serum starvation cell death, methylene blue staining. The series is classed as cell-based, bovine. The following applies: serum-free media 5-7 days, read-out: EC50, prevention of cell death. How it is done:
MDBK cells were incubated in serum-free media for 5-7 days in the presence or absence of different concentrations of biotin-HDAP2. At the end of the incubation period, media was removed, the cells were fixed in 4% PFA and then stained with Methylene Blue Loeffler for 30 minutes. Images were obtained using a Tiffen Zoom Camera, interfaced with PC Image, and analyzed using ImageJ NIH software. Experiments were conducted 5 times in triplicates for each experimental condition. Biotin-HDAP2 prevented cell death in a dose-dependent manner with EC50 of about 300 nM (FIG. 4).

Series [3] deals with retinal ganglion cells (RGCs). The series is described as follows: Retinal ganglion cell survival in retinal explants. The following applies: Brn3a labeling. The text has this: FIG. 8 illustrates retinal explants labeled with Brn3a (green) to label retinal ganglion cells (RGCs), ToPro3 to label all cell nuclei (red) and ChAT to label displaced amacrine cells (blue).
The test system of another series is ARPE-19 cells. As to the kind of experiment: Mitochondrial potential in the presence of CCCP (TMRM). The following applies: 10 μM CCCP, TMRM. The series is classed as cell-based. How it is done:
Effects of peptides on mitochondrial potential in the presence of Carbonyl cyanide m-chlorophenylhydrazone (CCCP): ARPE-19 cells (ATTC-CRL-2302) (5×10^4 cells) were seeded in 35 mm glass dishes in DMEM/F12 medium with 10% FBS for 24 hr. On the day of the experiment, cells were cultured in DMEM/F12 in the presence of different concentrations of biotin-HDAP2 for 60 min (FIG. 17B). Then, cells were incubated with 10 μM CCCP in the presence of 5 nM TMRM, 100 nM Mito View Green, and 10 μg/ml Hoechst 33342 for 15 min at 37° C. Fluorescent images were immediately obtained with a Nikon Eclipse 50i fluorescence microscope (60× objective) using FITC (Mito View Green), Texas Red (TMRM), and DAPI (Hoechst) filters. Images were collected from three independent experiments, using 4-6 random fields for each treatment group, and imaged and analyzed as described for NR.

Series [4] concerns retinal ganglion cells and optic nerve. As to the kind of experiment: Optic nerve protection with elevated intraocular pressure. The series is classed as in vivo, DBA/2J mice. How it is done: A series of experiments were conducted to determine if biotin-HDAP2 preserves mitochondrial ultrastructure in retinal ganglion cells (RGC) axons, whether biotin-HDAP2 preserves the integrity of axons in the optic nerve and/or whether biotin-HDAP2 treatment improves RGC survival. To these ends, 100 DBA/2J mice (8 and 12 weeks old) were obtained with the goal of studying them at 6 and 12 months of age. A small number of animals were examined at 6 months, but they had not yet developed elevated intraocular pressure (IOP), and no differences were observed between treatment conditions in optic nerve appearance or retinal ganglion cell distribution. Therefore, further analysis was delayed until animals reached 10 months, when elevated IOP was reliably present.
Optic nerves from all three experimental conditions (control, untreated and biotin-HDAP2-treated) have been embedded for ultrastructural analysis.
Nerves were obtained from 10-month-old animals who had high IOP for at least 3 consecutive months. Differences between control, untreated and biotin-HDAP2-treated groups were striking and correlated closely with cumulative intraocular pressure (cIOP) exposure.
All retinas in this study were stained with RBPMS, imaged using confocal microscopy, and RGCs were automatically counted using ImageJ. To assess the overall effect of biotin-HDAP2 treatment on RGC survival, RGC counts between biotin-HDAP2-treated and Untreated animals were compared across all available time points.

Series [5] deals with antimycin-induced scratching. As to the kind of experiment: Topical antimycin-induced scratching. In kind it is in vivo, C57BL/6J mice. The following applies: 100 μM topical with 200 μM antimycin, 60 min. How it is done: However, antimycin-induced scratching in mice was […] by biotin-free HDAP2. Dermal administration of antimycin, a mitochondrial Complex III irreversible inhibitor, is known to induce ROS formation and oxidative stress in C fibers of sensory neurons, resulting in severe scratching in mice. Biotin-HDAP2 and biotin-free HDAP2 were tested to see if either can inhibit topical antimycin-induced itching in 12 months old C57BL/6J mice. […] Specifically, 200 μM of topical antimycin in methanol induced itching, which was monitored for 60 min. […] Error bars represent SEM (n=3) **P<0.001. Topical administration of 100 μM of biotin-free HDAP2 with antimycin increased scratching by 2.5 fold. Error bars represent SEM (n=3) ***P<0.0001.

`N=C(N)NCCC[C@@H](NC(=O)[C@H](Cc1ccccc1)NC(=O)[C@H](Cc1ccccc1)NC(=O)[C@@H](CCCNC(=N)N)NC(=O)CCCC[C@@H]1SC[C@@H]2NC(=O)N[C@@H]21)C(N)=O` [biotin-HDAP2, Biotin-dArg-Phe-Phe-dArg-NH2] (Biotin-[dR]FF[dR]-NH2): the “effect on interaction between NAO and POPC liposomes” value in series [1] is “did not interfere with the interaction between NAO and the POPC liposomes”. The “Nile Red emission after blue shift” value in series [2] turned out to be 618 nm. The EC50 (usually the concentration needed to bring the measured effect to its halfway point) in the series with MDBK cells was roughly 300 nM. In series [3], the “survival of retinal ganglion cells in retinal explants” value is given as “promoted survival of retinal ganglion cells in retinal explants”. In addition, the entries for the “effect on CCCP-mediated mitochondrial depolarization” value in the series on ARPE-19 cells and in the series with ARPE-19 cells (listed as Biotin-HDAP2) were “prevented CCCP-mediated decreases in the mitochondrial membrane potential in a dose-dependent manner” and “prevented mitochondrial depolarization in a dose-dependent manner”, respectively. Also, the “optic nerve axon morphology” value in series [4] (10-month-old animals, high IOP at least 3 months) is on record as “morphologically comparable to those of young controls”. Also, in series [4] (all available time points, n=23), the “RGC counts (mean)” value is listed as 26,267±14,440. Further, the “RGC counts compared with other groups” value in series [4] (elevated cIOP) was “significantly higher RGC counts overall; also recorded: RGC counts similar to controls”. In addition, in series [4] (nerves exposed to high IOP), the “mitochondrial ultrastructure in RGC axons (TEM)” value is “more numerous and exhibit preserved cristae and greater structural integrity”. Further, the “effect on antimycin-induced scratching” value in series [5] was “inhibited scratching”. In “Water solubility”, the water solubility result is “water soluble”.
